In brackets after ≈: the same amount, converted by molar mass. Bridge positions count the residues as written; N and C are the ends. Square brackets hold non-standard residues; d marks the D form. Peptide text beside a SMILES is read from it. * marks the point of attachment. X1 = CC[C@H](C)CCCCC(=O)*; Dab = NCC[C@H](N)C(=O)O
Columns and labels:
[1] = test system: Escherichia coli; test: Antimicrobial activity against multi-drug resistant Escherichia coli assessed as reduction in bacterial growth by broth dilution method; format: functional
[2] = test system: Staphylococcus epidermidis; test: Antimicrobial activity against multi-drug resistant Staphylococcus epidermidis assessed as reduction in bacterial growth by broth dilution method; format: functional
[3] = test system: Staphylococcus aureus; test: Antimicrobial activity against multi-drug resistant Staphylococcus aureus assessed as reduction in bacterial growth by broth dilution method; format: functional
[4] = test system: Acinetobacter baumannii; test: Antimicrobial activity against multi-drug resistant Acinetobacter baumannii assessed as reduction in bacterial growth by broth dilution method; format: functional
[5] = test system: Staphylococcus aureus; test: Antimicrobial activity against Staphylococcus aureus ATCC 25923 assessed as reduction in bacterial growth by broth dilution method; format: functional
[6] = test system: Enterococcus faecalis; test: Antimicrobial activity against multi-drug resistant Enterococcus faecalis assessed as reduction in bacterial growth by broth dilution method; format: functional
[7] = test system: Klebsiella pneumoniae; test: Antimicrobial activity against multi-drug resistant Klebsiella pneumoniae assessed as reduction in bacterial growth by broth dilution method; format: functional
[8] = Hemolytic activity in human Red blood cell assessed as hemolysis incubated for 1 hrs by microplate reader based analysis; format: toxicity; conditions: erythrocyte
[9] = test system: Escherichia coli; test: Antimicrobial activity against Escherichia coli ATCC 25922 assessed as reduction in bacterial growth by broth dilution method; format: functional

Row | Compound | MIC [1] [µM] | MIC [2] [µM] | MIC [3] [µM] | MIC [4] [µM] | MIC [5] [µM] | MIC [6] [µM] | MIC [7] [µM] | HC10 [8] [µM] | MIC [9] [µM]
1 | CC[C@H](C)[C@H](N)C(=O)N[C@@H](CCCCN)C(=O)N[C@H](C(=O)N[C@@H](CCCCN)C(=O)N1CCC[C@H]1C(=O)N[C@@H](Cc1c[nH]c2ccccc12)C(=O)N[C@@H](Cc1c[nH]c2ccccc12)C(=O)N[C@@H](Cc1c[nH]c2ccccc12)C(=O)N1CCC[C@H]1C(=O)N[C@@H](CCCCN)C(=O)N[C@H](C(=O)N[C@@H](CCCCN)C(=O)N[C@H](C(N)=O)[C@@H](C)CC)[C@@H](C)CC)[C@@H](C)CC (H-IKIKPWWWPKIKI-NH2) | 16 (≈ 27.8 µg/mL) | 16 (≈ 27.8 µg/mL) | 8 (≈ 13.9 µg/mL) | 16 (≈ 27.8 µg/mL) | 8 (≈ 13.9 µg/mL) | 16 (≈ 27.8 µg/mL) | 64 (≈ 111 µg/mL) | > 256 | 16 (≈ 27.8 µg/mL)
2 | CC(C)C[C@H](NC(=O)[C@H](CCCCN)NC(=O)[C@H](CC(C)C)NC(=O)[C@H](CCCCN)NC(=O)[C@H](Cc1ccccc1)NC(=O)[C@@H]1CCCN1C(=O)[C@H](Cc1c[nH]c2ccccc12)NC(=O)[C@H](Cc1c[nH]c2ccccc12)NC(=O)[C@H](Cc1c[nH]c2ccccc12)NC(=O)[C@@H]1CCCN1C(=O)[C@H](Cc1ccccc1)NC(=O)[C@H](CCCCN)NC(=O)[C@H](CC(C)C)NC(=O)[C@H](CCCCN)NC(=O)[C@H](CC(C)C)NC(=O)[C@@H](N)CCCCN)C(=O)N[C@@H](CCCCN)C(N)=O (H-KLKLKFPWWWPFKLKLK-NH2) | 8 (≈ 18.3 µg/mL) | 4 (≈ 9.14 µg/mL) | 4 (≈ 9.14 µg/mL) | 8 (≈ 18.3 µg/mL) | 8 (≈ 18.3 µg/mL) | 8 (≈ 18.3 µg/mL) | 8 (≈ 18.3 µg/mL) | 38.84 | 8 (≈ 18.3 µg/mL)
3 | NCCCC[C@H](NC(=O)[C@H](Cc1c[nH]c2ccccc12)NC(=O)[C@H](CCCCN)NC(=O)[C@@H]1CCCN1C(=O)[C@H](Cc1c[nH]c2ccccc12)NC(=O)[C@H](Cc1c[nH]c2ccccc12)NC(=O)[C@H](Cc1c[nH]c2ccccc12)NC(=O)[C@@H]1CCCN1C(=O)[C@H](CCCCN)NC(=O)[C@H](Cc1c[nH]c2ccccc12)NC(=O)[C@H](CCCCN)NC(=O)[C@@H](N)Cc1c[nH]c2ccccc12)C(=O)N[C@@H](Cc1c[nH]c2ccccc12)C(N)=O (H-WKWKPWWWPKWKW-NH2) | 8 (≈ 16.2 µg/mL) | 2 (≈ 4.05 µg/mL) | 4 (≈ 8.11 µg/mL) | 8 (≈ 16.2 µg/mL) | 4 (≈ 8.11 µg/mL) | 2 (≈ 4.05 µg/mL) | 8 (≈ 16.2 µg/mL) | 28.58 | 8 (≈ 16.2 µg/mL)
4 | NCCCC[C@H](NC(=O)[C@H](Cc1ccccc1)NC(=O)[C@H](CCCCN)NC(=O)[C@H](Cc1ccccc1)NC(=O)[C@H](CCCCN)NC(=O)[C@H](Cc1ccccc1)NC(=O)[C@@H]1CCCN1C(=O)[C@H](Cc1c[nH]c2ccccc12)NC(=O)[C@H](Cc1c[nH]c2ccccc12)NC(=O)[C@H](Cc1c[nH]c2ccccc12)NC(=O)[C@@H]1CCCN1C(=O)[C@H](Cc1ccccc1)NC(=O)[C@H](CCCCN)NC(=O)[C@H](Cc1ccccc1)NC(=O)[C@H](CCCCN)NC(=O)[C@H](Cc1ccccc1)NC(=O)[C@@H](N)CCCCN)C(N)=O (H-KFKFKFPWWWPFKFKFK-NH2) | 8 (≈ 19.4 µg/mL) | 4 (≈ 9.69 µg/mL) | 8 (≈ 19.4 µg/mL) | 4 (≈ 9.69 µg/mL) | 8 (≈ 19.4 µg/mL) | 4 (≈ 9.69 µg/mL) | 16 (≈ 38.8 µg/mL) | 6.39 | 8 (≈ 19.4 µg/mL)
5 | CC[C@H](C)[C@H](N)C(=O)N[C@@H](CCCCN)C(=O)N[C@H](C(=O)N[C@@H](CCCCN)C(=O)N[C@H](C(=O)N[C@@H](CCCCN)C(=O)N1CCC[C@H]1C(=O)N[C@@H](Cc1c[nH]c2ccccc12)C(=O)N[C@@H](Cc1c[nH]c2ccccc12)C(=O)N[C@@H](Cc1c[nH]c2ccccc12)C(=O)N1CCC[C@H]1C(=O)N[C@@H](CCCCN)C(=O)N[C@H](C(=O)N[C@@H](CCCCN)C(=O)N[C@H](C(=O)N[C@@H](CCCCN)C(=O)N[C@H](C(N)=O)[C@@H](C)CC)[C@@H](C)CC)[C@@H](C)CC)[C@@H](C)CC)[C@@H](C)CC (H-IKIKIKPWWWPKIKIKI-NH2) | 64 (≈ 142 µg/mL) | 2 (≈ 4.44 µg/mL) | 8 (≈ 17.7 µg/mL) | 64 (≈ 142 µg/mL) | 4 (≈ 8.87 µg/mL) | 2 (≈ 4.44 µg/mL) | 64 (≈ 142 µg/mL) | 116.64 | 64 (≈ 142 µg/mL)
6 | CC[C@H](C)[C@H](N)C(=O)N[C@@H](CCCCN)C(=O)N[C@H](C(=O)N[C@@H](CCCCN)C(=O)N[C@@H](Cc1ccccc1)C(=O)N1CCC[C@H]1C(=O)N[C@@H](Cc1c[nH]c2ccccc12)C(=O)N[C@@H](Cc1c[nH]c2ccccc12)C(=O)N[C@@H](Cc1c[nH]c2ccccc12)C(=O)N1CCC[C@H]1C(=O)N[C@@H](Cc1ccccc1)C(=O)N[C@@H](CCCCN)C(=O)N[C@H](C(=O)N[C@@H](CCCCN)C(=O)N[C@H](C(N)=O)[C@@H](C)CC)[C@@H](C)CC)[C@@H](C)CC (H-IKIKFPWWWPFKIKI-NH2) | 32 (≈ 64.9 µg/mL) | 16 (≈ 32.5 µg/mL) | 16 (≈ 32.5 µg/mL) | 16 (≈ 32.5 µg/mL) | 16 (≈ 32.5 µg/mL) | 16 (≈ 32.5 µg/mL) | 256 (≈ 520 µg/mL) | 9.48 | 16 (≈ 32.5 µg/mL)
7 | CC[C@H](C)[C@H](NC(=O)[C@H](CCCCN)NC(=O)[C@@H](NC(=O)[C@H](Cc1ccccc1)NC(=O)[C@@H]1CCCN1C(=O)[C@H](Cc1c[nH]c2ccccc12)NC(=O)[C@H](Cc1c[nH]c2ccccc12)NC(=O)[C@H](Cc1c[nH]c2ccccc12)NC(=O)[C@@H]1CCCN1C(=O)[C@H](Cc1ccccc1)NC(=O)[C@@H](NC(=O)[C@H](CCCCN)NC(=O)[C@@H](NC(=O)[C@@H](N)CCCCN)[C@@H](C)CC)[C@@H](C)CC)[C@@H](C)CC)C(=O)N[C@@H](CCCCN)C(N)=O (H-KIKIFPWWWPFIKIK-NH2) | 16 (≈ 32.5 µg/mL) | 8 (≈ 16.2 µg/mL) | 8 (≈ 16.2 µg/mL) | 8 (≈ 16.2 µg/mL) | 8 (≈ 16.2 µg/mL) | 16 (≈ 32.5 µg/mL) | 256 (≈ 520 µg/mL) | 4.32 | 8 (≈ 16.2 µg/mL)
8 | CC(C)CCCCC(=O)N[C@@H](CCN)C(=O)N[C@H](C(=O)N[C@@H](CCN)C(=O)N[C@H]1CCNC(=O)[C@H]([C@@H](C)O)NC(=O)[C@H](CCN)NC(=O)[C@H](CCN)NC(=O)[C@H](CC(C)C)NC(=O)[C@@H](Cc2ccccc2)NC(=O)[C@H](CCN)NC1=O)[C@@H](C)O.CC[C@H](C)CCCCC(=O)N[C@@H](CCN)C(=O)N[C@H](C(=O)N[C@@H](CCN)C(=O)N[C@H]1CCNC(=O)[C@H]([C@@H](C)O)NC(=O)[C@H](CCN)NC(=O)[C@H](CCN)NC(=O)[C@H](CC(C)C)NC(=O)[C@@H](Cc2ccccc2)NC(=O)[C@H](CCN)NC1=O)[C@@H](C)O (X1-[Dab]T[Dab][Dab][Dab][dF]L[Dab][Dab]T; lactam 4-C) | 2 | 16 | 16 | 2 | 16 | 128 | 2 |  | 2
9 | CC(C)[C@H](NC(=O)[C@H](CCCCN)NC(=O)[C@@H](NC(=O)[C@H](CCCCN)NC(=O)[C@@H]1CCCN1C(=O)[C@H](Cc1c[nH]c2ccccc12)NC(=O)[C@H](Cc1c[nH]c2ccccc12)NC(=O)[C@H](Cc1c[nH]c2ccccc12)NC(=O)[C@@H]1CCCN1C(=O)[C@H](CCCCN)NC(=O)[C@@H](NC(=O)[C@H](CCCCN)NC(=O)[C@@H](NC(=O)[C@@H](N)CCCCN)C(C)C)C(C)C)C(C)C)C(=O)N[C@@H](CCCCN)C(N)=O (H-KVKVKPWWWPKVKVK-NH2) | 32 (≈ 61.9 µg/mL) | 32 (≈ 61.9 µg/mL) | 64 (≈ 124 µg/mL) | 64 (≈ 124 µg/mL) | 64 (≈ 124 µg/mL) | 32 (≈ 61.9 µg/mL) | 32 (≈ 61.9 µg/mL) | > 256 | 32 (≈ 61.9 µg/mL)
10 | NCCCC[C@H](NC(=O)[C@H](Cc1c[nH]c2ccccc12)NC(=O)[C@H](CCCCN)NC(=O)[C@H](Cc1c[nH]c2ccccc12)NC(=O)[C@H](CCCCN)NC(=O)[C@H](Cc1ccccc1)NC(=O)[C@@H]1CCCN1C(=O)[C@H](Cc1c[nH]c2ccccc12)NC(=O)[C@H](Cc1c[nH]c2ccccc12)NC(=O)[C@H](Cc1c[nH]c2ccccc12)NC(=O)[C@@H]1CCCN1C(=O)[C@H](Cc1ccccc1)NC(=O)[C@H](CCCCN)NC(=O)[C@H](Cc1c[nH]c2ccccc12)NC(=O)[C@H](CCCCN)NC(=O)[C@H](Cc1c[nH]c2ccccc12)NC(=O)[C@@H](N)CCCCN)C(N)=O (H-KWKWKFPWWWPFKWKWK-NH2) | 4 (≈ 10.3 µg/mL) | 8 (≈ 20.6 µg/mL) | 8 (≈ 20.6 µg/mL) | 8 (≈ 20.6 µg/mL) | 4 (≈ 10.3 µg/mL) | 8 (≈ 20.6 µg/mL) | 8 (≈ 20.6 µg/mL) | 2.1 | 8 (≈ 20.6 µg/mL)
11 | CC[C@H](C)[C@H](N)C(=O)N[C@@H](CCCCN)C(=O)N[C@H](C(=O)N[C@@H](CCCCN)C(=O)N[C@H](C(=O)N[C@@H](CCCCN)C(=O)N[C@@H](Cc1ccccc1)C(=O)N1CCC[C@H]1C(=O)N[C@@H](Cc1c[nH]c2ccccc12)C(=O)N[C@@H](Cc1c[nH]c2ccccc12)C(=O)N[C@@H](Cc1c[nH]c2ccccc12)C(=O)N1CCC[C@H]1C(=O)N[C@@H](Cc1ccccc1)C(=O)N[C@@H](CCCCN)C(=O)N[C@H](C(=O)N[C@@H](CCCCN)C(=O)N[C@H](C(=O)N[C@@H](CCCCN)C(=O)N[C@H](C(N)=O)[C@@H](C)CC)[C@@H](C)CC)[C@@H](C)CC)[C@@H](C)CC)[C@@H](C)CC (H-IKIKIKFPWWWPFKIKIKI-NH2) | 128 (≈ 322 µg/mL) | 128 (≈ 322 µg/mL) | 64 (≈ 161 µg/mL) | 128 (≈ 322 µg/mL) | 128 (≈ 322 µg/mL) | 128 (≈ 322 µg/mL) | 64 (≈ 161 µg/mL) | 6.56 | 128 (≈ 322 µg/mL)
12 | NCCCC[C@H](NC(=O)[C@H](Cc1c[nH]c2ccccc12)NC(=O)[C@H](CCCCN)NC(=O)[C@H](Cc1c[nH]c2ccccc12)NC(=O)[C@H](Cc1ccccc1)NC(=O)[C@@H]1CCCN1C(=O)[C@H](Cc1c[nH]c2ccccc12)NC(=O)[C@H](Cc1c[nH]c2ccccc12)NC(=O)[C@H](Cc1c[nH]c2ccccc12)NC(=O)[C@@H]1CCCN1C(=O)[C@H](Cc1ccccc1)NC(=O)[C@H](Cc1c[nH]c2ccccc12)NC(=O)[C@H](CCCCN)NC(=O)[C@H](Cc1c[nH]c2ccccc12)NC(=O)[C@@H](N)CCCCN)C(N)=O (H-KWKWFPWWWPFWKWK-NH2) | 64 (≈ 149 µg/mL) | 16 (≈ 37.1 µg/mL) | 4 (≈ 9.29 µg/mL) | 64 (≈ 149 µg/mL) | 4 (≈ 9.29 µg/mL) | 16 (≈ 37.1 µg/mL) | 256 (≈ 594 µg/mL) | 7.46 | 32 (≈ 74.3 µg/mL)

Reference: ChEMBL document CHEMBL6134890, “Terminally Symmetric β-Turn Peptides for Multidrug-Resistant Bacterial Infections” (J Med Chem, 2025)
